How the values were obtained:
anti-maltose antibody [1] = test: Conventional SPR affinity assay, maltose on immobilized anti-maltose antibody; assay type: binding; details: 12 injections 0 to 1500 μM, 25° C.
Experimental: In order to compare the results obtained with pulse injections to results obtained with the conventional method, 12 maltose injections of concentrations ranging from 0 to 1500 μM were performed. The injection time was 15 sec. Data was evaluated from a Req versus C plot using the BIAevaluation software.

anti-maltose antibody [2] = test: Pulse injection SPR steady state affinity, maltose on immobilized anti-maltose antibody; details: read-out: average KD; pulse injection method, 25° C., initial concentrations 0.05 and 0.1 mM
Experimental: Roughly the same amount of another antibody, anti-AFP, was immobilized in a reference flowcell in order to minimise errors in reference subtraction due to the high immobilization level. These two proteins were immobilized using the “amine coupling” procedure as follows: HBS-EP was used as running buffer with a constant flow rate of 5 μl/min. After activation for 12 min. with EDC, target (anti-maltose or anti-AFP, 50 μg/ml in 10 mM sodium acetate, pH 5.0) was injected for 7 min., followed by a 12-min. deactivation. Immobilization and all measurements on the surface were performed at 25° C.
Samples of different initial concentrations (0.05 and 0.1 mM) were injected over the surface. The association and dissociation phases of each pulse were 12 seconds. […] Each experiment started with a blank run, i.e., a series of pulses of running buffer alone. The concentration of the first pulse, C1, was assumed to be equal to the concentration in the vial. […]
Response levels were obtained by taking the average of 10 data points at equilibrium. […] The constant multi-concentration pulse series were evaluated with a non-linearly fitted Req versus C plot, whereby KA, KD and Rmax values were obtained directly from the software.

HSA = HSA (Homo sapiens, UniProt P02768)
Chain of HSA (P02768 25-609 limits assumed): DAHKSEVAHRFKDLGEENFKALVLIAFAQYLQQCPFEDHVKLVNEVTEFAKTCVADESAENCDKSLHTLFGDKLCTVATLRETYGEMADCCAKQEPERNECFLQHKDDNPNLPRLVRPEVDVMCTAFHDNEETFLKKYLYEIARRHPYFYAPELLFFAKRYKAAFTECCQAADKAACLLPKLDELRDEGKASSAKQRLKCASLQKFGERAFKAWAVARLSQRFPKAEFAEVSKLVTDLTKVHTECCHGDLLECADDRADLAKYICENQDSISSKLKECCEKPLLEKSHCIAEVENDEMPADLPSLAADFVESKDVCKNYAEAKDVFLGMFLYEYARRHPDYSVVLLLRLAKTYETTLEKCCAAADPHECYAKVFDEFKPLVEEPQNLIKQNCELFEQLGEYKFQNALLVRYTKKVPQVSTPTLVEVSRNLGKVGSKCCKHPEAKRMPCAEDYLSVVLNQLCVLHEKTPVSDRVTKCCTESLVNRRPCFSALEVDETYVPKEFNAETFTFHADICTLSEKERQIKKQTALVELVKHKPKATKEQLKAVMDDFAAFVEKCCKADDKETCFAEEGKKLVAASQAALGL

Row | Kd (anti-maltose antibody [1]) [mM] | Kd (anti-maltose antibody [2]) [mM] | SMILES | site competition on HSA, pair digitoxin and warfarin (HSA)
1 | 8.5 | 9 | OC[C@H]1O[C@H](O[C@H]2[C@H](O)[C@@H](O)C(O)O[C@@H]2CO)[C@H](O)[C@@H](O)[C@@H]1O (mixture of isomers) [maltose] | 
2 |  |  | C[C@H]1O[C@@H](O[C@H]2[C@@H](O)C[C@H](O[C@H]3[C@@H](O)C[C@H](O[C@H]4CC[C@@]5(C)[C@H](CC[C@@H]6[C@@H]5CC[C@]5(C)[C@@H](C7=CC(=O)OC7)CC[C@]65O)C4)O[C@@H]3C)O[C@@H]2C)C[C@H](O)[C@@H]1O [Digitoxin, digitoxin] | non-competitive binders

— US7642058B2, “Method and apparatus for characterization of interactions” (GE Healthcare Bio-Sciences AB, priority 2003, dated 2010)
